Structures can show the parent of a compound that is named as a salt.
Legend:
HIV = conditions: cited from earlier work
V370A = assay: MT4 Cell Antiviral Assay, V370A; format: cell-based, HIV-1; conditions: Human immunodeficiency virus 1, MT4, read-out: EC50V370A
NL4-3 wt = assay: MT4 Cell Antiviral Assay, NL4-3 wt; format: cell-based, HIV-1; conditions: Human immunodeficiency virus 1, NL43, HIV MT4 Antiviral Cell Assay of Example 11

## C=C(C)[C@@H]1CC[C@]2(C(=O)O)CC[C@]3(C)[C@H](CC[C@@H]4[C@@]5(C)CC[C@H](OC(=O)CC(C)(C)C(=O)O)C(C)(C)[C@@H]5CC[C@]43C)[C@@H]12 [Bevirimat]
HIV; patients with trough levels >=20 μg/mL and without key baseline Gag polymorphisms at Q369, V370 or T371
  reduced HIV viral load, mean: 1.3 log10/mL
HIV; users with Gag polymorphisms at Q369, V370 or T371
  viral load reductions versus patients without Gag polymorphisms: significantly lower load reductions

## CC(C)C1=C2[C@H]3CC[C@@H]4[C@@]5(C)CC=C(C6=CCC(C(=O)O)CC6)C(C)(C)[C@@H]5CC[C@@]4(C)[C@]3(C)CC[C@@]2([C@@H](O)CN(CC2CCC2)C(=O)CN2CCCC2)CC1=O (stereo partly drawn) [Example 7, 4-((3aR,5aR,5bR,7aR,11aS, 11bR,13aS)-3a-((R)-2-(N-(cyclobutylmethyl)-2-(pyrrolidin-1-yl)acetamido)-1-hydroxyethyl)-1-isopropyl-5a,5b,8,8,11a-pentamethyl-2-oxo-3,3a,4,5,5a,5b,6,7,7a,8, 11,11a,11b,12,13,13a-hexadecahydro-2H-cyclopenta[a]chrysen-9-yl)cyclohex-3-enecarboxylic acid]
V370A
  EC50: 4.1 nM
NL4-3 wt
  EC50: 5.8 nM

## CC(C)C1=C2[C@H]3CC[C@@H]4[C@@]5(C)CC=C(C6=CCC(C(=O)O)CC6)C(C)(C)[C@@H]5CC[C@@]4(C)[C@]3(C)CC[C@@]2([C@@H](O)CN(CC2CC2)C(=O)CN(C)C)CC1=O (stereo partly drawn) [Example 2, 4-((3aR,5aR,5bR,7aR,11aS, 11bR,13aS)-3a-((R)-2-(N-(cyclopropylmethyl)-2-(dimethylamino)acetamido)-1-hydroxyethyl)-1-isopropyl-5a,5b,8,8,11a-pentamethyl-2-oxo-3,3a,4,5,5a,5b,6,7,7a,8, 11,11a,11b,12,13,13a-hexadecahydro-2H-cyclopenta[a]chrysen-9-yl)cyclohex-3-enecarboxylic acid]
V370A
  EC50: 11.2 nM
NL4-3 wt
  EC50: 5.4 nM

## CC(C)C1=C2[C@H]3CC[C@@H]4[C@@]5(C)CC=C(C6=CCC(C(=O)O)CC6)C(C)(C)[C@@H]5CC[C@@]4(C)[C@]3(C)CC[C@@]2([C@@H](O)CN(CCN(C)C)Cc2ccc(Cl)cc2)CC1=O (stereo partly drawn) [Example 9, 4-((3aR,5aR,5bR,7aR,11aS, 11bR,13aS)-3a-((R)-2-((4-chlorobenzyl)(2-(dimethylamino)ethyl)amino)-1-hydroxyethyl)-1-isopropyl-5a,5b,8,8,11a-pentamethyl-2-oxo-3,3a,4,5,5a,5b,6,7,7a,8, 11,11a,11b,12,13,13a-hexadecahydro-2H-cyclopenta[a]chrysen-9-yl)cyclohex-3-enecarboxylic acid dihydrochloride]
V370A
  EC50: 10.7 nM
NL4-3 wt
  EC50: 6.8 nM

## CC(C)C1=C2[C@H]3CC[C@@H]4[C@@]5(C)CC=C(C6=CCC(C(=O)O)CC6)C(C)(C)[C@@H]5CC[C@@]4(C)[C@]3(C)CC[C@@]2([C@@H](O)CNCC2CC2)CC1=O (stereo partly drawn) [Example 10, 4-((3aR,5aR,5bR,7aR,11aS, 11bR,13aS)-3a-((R)-2-((cyclopropylmethyl)amino)-1-hydroxyethyl)-1-isopropyl-5a,5b,8,8,11a-pentamethyl-2-oxo-3,3a,4,5,5a,5b,6,7,7a,8, 11,11a,11b,12,13,13a-hexadecahydro-2H-cyclopenta[a]chrysen-9-yl)cyclohex-3-enecarboxylic acid]
V370A
  EC50: 25100 nM
NL4-3 wt
  EC50: 9.3 nM

## CC(C)C1=C2[C@H]3CC[C@@H]4[C@@]5(C)CC=C(C6=CCC(C(=O)O)CC6)C(C)(C)[C@@H]5CC[C@@]4(C)[C@]3(C)CC[C@@]2([C@@H](O)CN(CC2CC2)C(=O)CN2CCCC2)CC1=O (stereo partly drawn) [Example 3, 4-((3aR,5aR,5bR,7aR,11aS, 11bR,13aS)-3a-((R)-2-(N-(cyclopropylmethyl)-2-(pyrrolidin-1-yl)acetamido)-1-hydroxyethyl)-1-isopropyl-5a,5b,8,8,11a-pentamethyl-2-oxo-3,3a,4,5,5a,5b,6,7,7a,8, 11,11a,11b,12,13,13a-hexadecahydro-2H-cyclopenta[a]chrysen-9-yl)cyclohex-3-enecarboxylic acid]
V370A
  EC50: 3.7 nM
NL4-3 wt
  EC50: 3.3 nM

## COCC(=O)N(CC1CCC1)C[C@H](O)[C@@]12CC[C@]3(C)[C@H](CC[C@@H]4[C@@]5(C)CC=C(C6=CCC(C(=O)O)CC6)C(C)(C)[C@@H]5CC[C@]43C)C1=C(C(C)C)C(=O)C2 (stereo partly drawn) [Example 6, 4-((3aR,5aR,5bR,7aR,11aS, 11bR,13aS)-3a-((R)-2-(N-(cyclobutylmethyl)-2-methoxyacetamido)-1-hydroxyethyl)-1-isopropyl-5a,5b,8,8,11a-pentamethyl-2-oxo-3,3a,4,5,5a,5b,6,7,7a,8, 11,11a,11b,12,13,13a-hexadecahydro-2H-cyclopenta[a]chrysen-9-yl)cyclohex-3-enecarboxylic acid]
V370A
  EC50: 20.4 nM
NL4-3 wt
  EC50: 10 nM

## COCC(=O)N(CC1CC1)C[C@H](O)[C@@]12CC[C@]3(C)[C@H](CC[C@@H]4[C@@]5(C)CC=C(C6=CCC(C(=O)O)CC6)C(C)(C)[C@@H]5CC[C@]43C)C1=C(C(C)C)C(=O)C2 (stereo partly drawn) [Example 1, 4-((3aR,5aR,5bR,7aR,11aS, 11bR,13aS)-3a-((R)-2-(N-(cyclopropylmethyl)-2-methoxyacetamido)-1-hydroxyethyl)-1-isopropyl-5a,5b,8,8,11a-pentamethyl-2-oxo-3,3a,4,5,5a,5b,6,7,7a,8, 11,11a,11b,12,13,13a-hexadecahydro-2H-cyclopenta[a]chrysen-9-yl)cyclohex-3-enecarboxylic acid]
V370A
  EC50: 8.9 nM
NL4-3 wt
  EC50: 7.9 nM

## CC(C)C1=C2[C@H]3CC[C@@H]4[C@@]5(C)CC=C(C6=CCC(C(=O)O)CC6)C(C)(C)[C@@H]5CC[C@@]4(C)[C@]3(C)CC[C@@]2([C@@H](O)CN(CC2CC2)C(=O)CN2CCCC2=O)CC1=O (stereo partly drawn) [Example 4, 4-((3aR,5aR,5bR,7aR,11aS, 11bR,13aS)-3a-((R)-2-(N-(cyclopropylmethyl)-2-(2-oxopyrrolidin-1-yl)acetamido)-1-hydroxyethyl)-1-isopropyl-5a,5b,8,8,11a-pentamethyl-2-oxo-3,3a,4,5,5a,5b,6,7,7a,8, 11,11a,11b,12,13,13a-hexadecahydro-2H-cyclopenta[a]chrysen-9-yl)cyclohex-3-enecarboxylic acid]
V370A
  EC50: 20.9 nM
NL4-3 wt
  EC50: 7.1 nM
